The target of data set [1] is T1, Calf intestinal alkaline phosphatase (CIAP) (Bos taurus, UniProt P19111).
T1 construct: purchased Sigma
Kind of data set: Alkaline phosphatase dephosphorylation, free sulfhydryl groups measured with DTNB (Ellman's Reagent) at A412. The format is biochemical. As to the method:
Assays were performed to verify the ability of alkaline phosphatase to dephosphorylate compound (7) to create sulfydryl reactive groups. Calf intestinal alkaline phosphatase (CIAP, Sigma) was diluted in phosphate buffered saline (PBS) to 250 units/ml, and frozen in tubes containing 100 μl aliquots.
A second assay was performed to examine the ability of alkaline phosphatase to dephosphorylate compound (7) to create sulfydryl reactive groups. A 12.5 mM solution of Compound 7 was made (4 mg/ml) and used in the test reactions.
A time course of dephosphorylation was also performed using Compound 7, following the same reaction conditions as in Table 3.

For data set [2] the following is noted: randomized Phase III human trials: head and neck cancer, lung cancer, carboplatin myelosuppression, rectal cancer; cited from earlier work.
The test system of another data set is HepG2. As for the experimental part: The compound ((S)-ethyl 2-amino-5-((R)-1-ethoxy-1-oxo-3-(phosphonothio)propan-2-ylamino)-5-oxopentanoate monosodium salt) was tested for intracellular properties. In particular, experiments were conducted to determine the ability of the compound to enter into cells and generate glutathione. HepG2 were incubated with the compound with or without added bovine intestinal alkaline phosphatase (Sigma). Cells were scraped into SSA, vortexed and then spun.

Another data set concerns mice. Conditions: doses up to 5 mmoles/animal.
The subject of the next data set is hamsters. The conditions noted are these: doses up to 5 mmoles/animal.
The conditions of data set [3]: co-administration of reduced glutathione, clinical trial; cited from earlier work.

Several values for one entry are separate records, joined by “and”; a condition that tells them apart may be missing. Equal entries are not always repeated.

T1 sequence (P19111 20-506): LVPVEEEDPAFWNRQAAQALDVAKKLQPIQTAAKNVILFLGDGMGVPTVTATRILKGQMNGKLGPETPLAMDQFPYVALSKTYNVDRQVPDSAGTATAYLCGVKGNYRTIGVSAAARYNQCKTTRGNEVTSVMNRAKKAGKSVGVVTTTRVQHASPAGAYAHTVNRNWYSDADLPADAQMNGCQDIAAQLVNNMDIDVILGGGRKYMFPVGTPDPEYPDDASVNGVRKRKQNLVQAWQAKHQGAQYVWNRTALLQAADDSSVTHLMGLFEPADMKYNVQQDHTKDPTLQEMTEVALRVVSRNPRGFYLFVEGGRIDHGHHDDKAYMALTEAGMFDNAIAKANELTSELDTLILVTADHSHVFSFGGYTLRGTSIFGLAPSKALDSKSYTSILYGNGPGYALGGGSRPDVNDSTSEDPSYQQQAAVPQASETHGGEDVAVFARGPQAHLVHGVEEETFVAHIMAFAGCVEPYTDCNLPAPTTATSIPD

Turning to `NCCCNCCSP(=O)(O)O` [AF, S-2-(3-aminopropylamino)ethylphosphorothioic acid, reference compound], the A412 in data set [1] (reaction 2: 10 μl 5 mM AF, 890 μl PBS, no CIAP, no DTNB, 10 min room temperature) worked out at 0.00; in data set [1] (reaction 3: 10 μl 5 mM AF, 25 μl CIAP, 865 μl PBS, no DTNB, 10 min room temperature), 0.00; in data set [1] (reaction 4: 20 μl 5 mM AF, 50 μl CIAP (so in the source), 100 μl DTNB, 880 μl PBS, 10 min room temperature), 0.03; in data set [1] (reaction 5: 20 μl 5 mM AF, 50 μl CIAP, 100 μl DTNB, 830 μl PBS, 10 min room temperature), 0.34. The “toxicity of chemotherapy and radiation therapy” value in data set [2] is recorded as “reduce toxicity”.
Consider `CCOC(=O)[C@H](CSP(=O)([O-])O)NC(=O)CC[C@H](N)C(=O)OCC.[Na+]` [Compound 7, (S)-ethyl 2-amino-5-((R)-1-ethoxy-1-oxo-3-(phosphonothio)propan-2-ylamino)-5-oxopentanoate monosodium salt], for which the “time course of dephosphorylation (free sulfhydryl groups)” value in data set [1] (30 min. period, A412 readings at 3 min. intervals, conditions as in Table 3) is given as “time dependent”. Besides, the “dephosphorylation by alkaline phosphatase” value in data set [1] (conclusion from Table 3) is “dephosphorylated by alkaline phosphatase to yield free reactive sulfhydryl groups”. Also, the A412 in data set [1] (with CIAP (50 μl): 10 μl 12.5 mM C7, 100 μl DTNB, 840 μl PBS, 10 min 37° C., listed as C7, monosodium salt) is 0.547 and 0.526; in data set [1] (without CIAP (negative reaction): 10 μl 12.5 mM C7, 100 μl DTNB, 890 μl PBS, 10 min 37° C., listed as C7, monosodium salt) it was 0.044 and 0.039. The “increase in cellular GSH” value in the data set on HepG2 (HepG2, compound and alkaline phosphatase, in the presence of buthionine sulfoximine) is on record as “greater than 5 fold”. In addition, the entry into cells entry in the data set with HepG2 (HepG2, without prior hydrolysis of the phosphate group by alkaline phosphatase) is listed as “did not enter cells”. For the same compound, the toxicity to cells entry with HepG2 (HepG2 incubated with compound with or without alkaline phosphatase) is reported as “did not exhibit any evidence of toxicity”. For the same compound, the “increase in GSH contents” value in the data set with HepG2 (HepG2 treated with the compound and alkaline phosphatase) stood at 3.6 fold. For the same compound, the overt toxicity entry in the data set on mice and in the data set on hamsters was “no overt toxicity” each time.
The compound `N[C@@H](CCC(=O)N[C@@H](CS)C(=O)NCC(=O)O)C(=O)O` [GSH, glutathione, reference compound] gave an A412 in data set [1] (reaction 1, positive control: 10 μl 2 mM GSH, 100 μl DTNB, 890 μl PBS, no CIAP, 5 min room temperature) of 0.35. For the same compound, the “neuropathy seen with oxaliplatin” value in data set [3] was “significantly reduce the neuropathy”.

The values are drawn from patent US8435956B2, “Compositions and methods for protecting cells from toxic exposures” (Percitus Biosciences, LLC, priority 2007, dated 2013).
